SMILES strings stand for the structures. Where only a bound is given, the exact number is not on record here.

One data set in a line: Nitrite content (ion chromatography; LC-FLD with DAN derivatisation; Griess test) in drug substance, intermediates, reagents, solvents, filters, excipients. The following applies: drug substance manufactured at Menges, T0. Format: physicochemical. The arrangement: Nitrite content T0 (enhanced method): unit: ppm. The source says:
The method of testing for the presence and/or total amount of nitrites that is used in the methods of the invention may be any method which allows for the detection and/or quantitation of nitrites in a composition. For example, the method may be the Griess test. The Griess test allows for the detection and analysis of nitrite by the formation of a red-pink colour upon treatment of a nitrite-containing sample with the Griess reagent. The Griess reagent consists of two components in an acidic solution: an aniline derivative and a coupling agent. The most common arrangements use sulfanilamide and N-(1-naphthyl)ethylenediamine. For example 0.2% N-(1-naphthyl)ethylenediamine dihydrochloride and 2% sulfanilamide in 5% phosphoric acid may be used as a Griess reagent. Other aniline derivatives that may be used in a Griess reagent include sulfanilic acid, nitroaniline, and p-aminoacetophenone.
The Griess test involves two subsequent reactions, as shown in the scheme below. When the aniline derivative (e.g., sulfanilamide) is added, the nitrite ion reacts with it in the Griess diazotization reaction to form a diazonium salt, which then reacts with N-(1-naphthyl)ethylenediamine in an azo-coupling reaction, forming a pink-red azo-dye. Using a spectrophotometer, the nitrite concentration can then be quantitatively detected.
Additionally purified water; e.g. Milli Q • 2.
• 10 mM KH2PO4 Weigh accurately about 1.361 g of KH2PO4 into a 1 L volumetric flask, dissolve it in approximately 950 mL of additionally purified water and adjust the pH to 8.0 (with 2.7 M NaOH). Make up to the mark with additionally purified water. • 0.62 M HCl Add a few millilitres (e.g. 20 mL) of additionally purified water to a 200 mL volumetric flask, add 10.280 mL of concentrated HCl, mix and make up to the mark with additionally purified water. • 2.7 M NaOH Weigh accurately about 1.092 g of NaOH pellets into a 10 mL volumetric flask and dissolve it in additionally purified water. Cool to room temperature and make up to the mark with the same solvent. • Reagent DAN Weigh accurately about 5 mg of 2,3-diaminophthalene into a 100 mL volumetric flask and dissolve it with the solvent (methanol/water 1:1 (v/v)). Dilute up to the mark and ensure visual full dissolution. Use an amberglass flask. • Mobile phase A Mix 950 mL of 10 mM KH2PO4 solution (pH=8) and add 50 mL methanol. • Mobile phase B Methanol. • Solvent Methanol/water 1:1 (v/v), e.g. mix 2000 mL of additionally purified water and 2000 mL methanol.
• Instrument: HPLC with FLR detector; e.g. Waters Arc or equivalent • Column: C18 50×4.6 mm, 2.5 μm, e.g. XBridge C18 2.5 μm, 4.650 mm or equivalent
• Notes It is recommended to wear additional protective equipment (face mask and gloves) during weighing. • It is recommended to wash the column with 50% methanol after the analysis (example of preparation: mix 500 mL methanol and 500 m1 of additionally purified water). • It is recommended to rinse the injector with solvent after each injection. • All glassware and tools should be rinsed with additionally purified water before use. It is not recommended to leave the solutions open for a longer time before measurement. • Blank solution 1 Transfer 1 mL of solvent into a HPLC vial and perform derivatization as described below. • Blank solution 2 Transfer 10 mL of solvent into a single use glass vial and mix it on a magnetic stirrer for 30 min. Transfer the solution into a 5 mL centrifuge tube and centrifuge for 10 min at 12000 rpm. […] Fill up to the mark with solvent and mix. • (Cnitrite≈0.0005 mg/mL) • Comparison solution Transfer 10 mL of nitrite stock solution into a 500 mL volumetric flask. • (2 parallels) Fill up to the mark with solvent and mix. • Transfer 1 mL solution into a HPLC vial and perform the derivatization as described below. • (Cnitrite≈100 ppb) • Sample solution Accurately weigh about 1000 mg of the sample into a glass vial for single use and add 10 mL of solvent.
For the molecule `CN(C)C(=O)c1cc2cnc(Nc3ccc(N4CCNCC4)cn3)nc2n1C1CCCC1.O=C(O)CCC(=O)O` [Batch B695104], the “Nitrite content T0 (enhanced method)” value was found to be 0.5.

Staying with this data set, now noted: ribociclib base (LEE011 B10), ion chromatography.
For `CN(C)C(=O)c1cc2cnc(Nc3ccc(N4CCNCC4)cn3)nc2n1C1CCCC1` [Batch B687416], the “Nitrite [ppm] LOD (1 ppm)” value was “<LOD”.

The data set is the same for the next values; noted with them: ribociclib succinate drug substance batches at release.
For the molecule `CN(C)C(=O)c1cc2cnc(Nc3ccc(N4CCNCC4)cn3)nc2n1C1CCCC1.O=C(O)CCC(=O)O` [Batch B710668], the “Nitrite NAP method (ppm)” value is listed as 0.2 ppm and the “Nitrite NAT enhanced sample prep. (ppm)” value amounted to 0.1 ppm.

For `CN(C)C(=O)c1cc2cnc(Nc3ccc(N4CCNCC4)cn3)nc2n1C1CCCC1.O=C(O)CCC(=O)O` [Batch B699003], the “Nitrite NAP method (ppm)” value turned out to be 0.1 ppm and the “Nitrite NAT enhanced sample prep. (ppm)” value was <0.1 ppm. In the case of `CN(C)C(=O)c1cc2cnc(Nc3ccc(N4CCNCC4)cn3)nc2n1C1CCCC1.O=C(O)CCC(=O)O` [Batch B711439], the “Nitrite NAP method (ppm)” value was 0.1 ppm and the “Nitrite NAT enhanced sample prep. (ppm)” value is recorded as <0.1 ppm. Take `CN(C)C(=O)c1cc2cnc(Nc3ccc(N4CCNCC4)cn3)nc2n1C1CCCC1.O=C(O)CCC(=O)O` [Batch B709941]: the “Nitrite NAP method (ppm)” value was 0.1 ppm and the “Nitrite NAT enhanced sample prep. (ppm)” value is 0.1 ppm. On to `CN(C)C(=O)c1cc2cnc(Nc3ccc(N4CCNCC4)cn3)nc2n1C1CCCC1.O=C(O)CCC(=O)O` [Batch B698297], for which the “Nitrite NAP method (ppm)” value turned out to be 0.2 ppm and the “Nitrite NAT enhanced sample prep. (ppm)” value was determined as 0.1 ppm. Taken in the same sequence, the figures for `CN(C)C(=O)c1cc2cnc(Nc3ccc(N4CCNCC4)cn3)nc2n1C1CCCC1.O=C(O)CCC(=O)O` [Batch B698295] were 0.3 ppm and 0.4 ppm.

For `CN(C)C(=O)c1cc2cnc(Nc3ccc(N4CCNCC4)cn3)nc2n1C1CCCC1.O=C(O)CCC(=O)O` [Batch B695104], the “Nitrite NAP method (ppm)” value is on record as 0.3 ppm and the “Nitrite NAT enhanced sample prep. (ppm)” value was found to be 0.5 ppm. `CN(C)C(=O)c1cc2cnc(Nc3ccc(N4CCNCC4)cn3)nc2n1C1CCCC1.O=C(O)CCC(=O)O` [Batch B710669]: the “Nitrite NAP method (ppm)” value is recorded as 0.1 ppm and the “Nitrite NAT enhanced sample prep. (ppm)” value was <0.1 ppm. The corresponding values for `CN(C)C(=O)c1cc2cnc(Nc3ccc(N4CCNCC4)cn3)nc2n1C1CCCC1.O=C(O)CCC(=O)O` [Batch B698298] are 0.2 ppm and <0.1 ppm. On to `CN(C)C(=O)c1cc2cnc(Nc3ccc(N4CCNCC4)cn3)nc2n1C1CCCC1.O=C(O)CCC(=O)O` [Batch B710665], for which the “Nitrite NAP method (ppm)” value turned out to be 0.2 ppm and the “Nitrite NAT enhanced sample prep. (ppm)” value came to 1.6 ppm. For `CN(C)C(=O)c1cc2cnc(Nc3ccc(N4CCNCC4)cn3)nc2n1C1CCCC1.O=C(O)CCC(=O)O` [Batch B696589], the “Nitrite NAP method (ppm)” value is recorded as 0.2 ppm and the “Nitrite NAT enhanced sample prep. (ppm)” value is on record as <0.1 ppm. Consider `CN(C)C(=O)c1cc2cnc(Nc3ccc(N4CCNCC4)cn3)nc2n1C1CCCC1.O=C(O)CCC(=O)O` [Batch B698293], for which the “Nitrite NAP method (ppm)” value is given as 0.3 ppm and the “Nitrite NAT enhanced sample prep. (ppm)” value was found to be 0.4 ppm. In the case of `CN(C)C(=O)c1cc2cnc(Nc3ccc(N4CCNCC4)cn3)nc2n1C1CCCC1.O=C(O)CCC(=O)O` [Batch B696588], the “Nitrite NAP method (ppm)” value is reported as 0.2 ppm and the “Nitrite NAT enhanced sample prep. (ppm)” value is listed as 0.1 ppm. The corresponding values for `CN(C)C(=O)c1cc2cnc(Nc3ccc(N4CCNCC4)cn3)nc2n1C1CCCC1.O=C(O)CCC(=O)O` [Batch B710666] are 0.5 ppm and <0.1 ppm. The corresponding values for `CN(C)C(=O)c1cc2cnc(Nc3ccc(N4CCNCC4)cn3)nc2n1C1CCCC1.O=C(O)CCC(=O)O` [Batch B709049] are 0.2 ppm and <0.1 ppm.

Still in this data set, the particulars now being: ribociclib succinate drug substance batches at release; manufacturer Raybow - DS04.
Consider `CN(C)C(=O)c1cc2cnc(Nc3ccc(N4CCNCC4)cn3)nc2n1C1CCCC1.O=C(O)CCC(=O)O` [RIBOCICLIB SUCCINATE 833268R016], for which the “Nitrite NAT enhanced sample prep. (ppm)” value is <0.1 ppm. In the case of `CN(C)C(=O)c1cc2cnc(Nc3ccc(N4CCNCC4)cn3)nc2n1C1CCCC1.O=C(O)CCC(=O)O` [RIBOCICLIB SUCCINATE 833268R009], the “Nitrite NAT enhanced sample prep. (ppm)” value is reported as <0.1 ppm. Same read-out and setting: then `CN(C)C(=O)c1cc2cnc(Nc3ccc(N4CCNCC4)cn3)nc2n1C1CCCC1.O=C(O)CCC(=O)O` [RIBOCICLIB SUCCINATE 833268A196], with 1.1 ppm.

In the case of `CN(C)C(=O)c1cc2cnc(Nc3ccc(N4CCNCC4)cn3)nc2n1C1CCCC1.O=C(O)CCC(=O)O` [RIBOCICLIB SUCCINATE 833268R010], the “Nitrite NAT enhanced sample prep. (ppm)” value is recorded as <0.1 ppm.

In the case of `CN(C)C(=O)c1cc2cnc(Nc3ccc(N4CCNCC4)cn3)nc2n1C1CCCC1.O=C(O)CCC(=O)O` [RIBOCICLIB SUCCINATE 833268A202], the “Nitrite NAT enhanced sample prep. (ppm)” value is 0.1 ppm. Still for that read-out and setting: with `CN(C)C(=O)c1cc2cnc(Nc3ccc(N4CCNCC4)cn3)nc2n1C1CCCC1.O=C(O)CCC(=O)O` [RIBOCICLIB SUCCINATE 833268A211] the figure was <0.1 ppm; with `CN(C)C(=O)c1cc2cnc(Nc3ccc(N4CCNCC4)cn3)nc2n1C1CCCC1.O=C(O)CCC(=O)O` [RIBOCICLIB SUCCINATE 833268A193], 0.1 ppm. `CN(C)C(=O)c1cc2cnc(Nc3ccc(N4CCNCC4)cn3)nc2n1C1CCCC1.O=C(O)CCC(=O)O` [RIBOCICLIB SUCCINATE 833268A207]: the “Nitrite NAT enhanced sample prep. (ppm)” value amounted to 0.1 ppm.

The data set is the same for the next values; noted with them: ribociclib succinate drug substance batches at release; manufacturer Raybow - DS05.
For `CN(C)C(=O)c1cc2cnc(Nc3ccc(N4CCNCC4)cn3)nc2n1C1CCCC1.O=C(O)CCC(=O)O` [RIBOCICLIB SUCCINATE 833268A196], the “Nitrite NAT enhanced sample prep. (ppm)” value was 0.1 ppm. With `CN(C)C(=O)c1cc2cnc(Nc3ccc(N4CCNCC4)cn3)nc2n1C1CCCC1.O=C(O)CCC(=O)O` [RIBOCICLIB SUCCINATE 833268A202], the “Nitrite NAT enhanced sample prep. (ppm)” value was determined as 0.1 ppm. With `CN(C)C(=O)c1cc2cnc(Nc3ccc(N4CCNCC4)cn3)nc2n1C1CCCC1.O=C(O)CCC(=O)O` [RIBOCICLIB SUCCINATE 833268A193], the “Nitrite NAT enhanced sample prep. (ppm)” value was found to be 0.1 ppm.

Turning to `CN(C)C(=O)c1cc2cnc(Nc3ccc(N4CCNCC4)cn3)nc2n1C1CCCC1.O=C(O)CCC(=O)O` [RIBOCICLIB SUCCINATE 833268A207], the “Nitrite NAT enhanced sample prep. (ppm)” value is 0.1 ppm.

Regarding `CN(C)C(=O)c1cc2cnc(Nc3ccc(N4CCNCC4)cn3)nc2n1C1CCCC1.O=C(O)CCC(=O)O` [RIBOCICLIB SUCCINATE 834325A016], the “Nitrite NAT enhanced sample prep. (ppm)” value is 0.1 ppm.

A further data set in a line: DMP433 (N-nitroso-ribociclib) content in ribociclib base (B10) and ribociclib succinate (B12, drug substance) batches and process experiments, LC-MS/MS or HPLC-HRMS. The settings on record: ribociclib base (LEE011 B10). Format: physicochemical. An excerpt:
The method of testing for the presence and/or total amount of nitrosamines (such as the presence and/or total amount of N-nitroso-ribociclib in free or salt form) that is used in the methods of the invention may be any method which allows for the detection of nitrosamines in a composition. For example, the method may involve the Griess test described above. In such a method, the nitrosamines may be first denitrosated (e.g., by photolysis) to form a nitrite, which is then detected in the Griess test. Alternatively, the method may include high performance liquid chromatography (HPLC)- and/or gas chromatography (GC)-mass spectroscopy. An example of a method of testing for the presence and amount of nitrosamines (namely N-nitroso-ribociclib) is provided herein as Example 14. […]
2.7. […] Dissolve the substance using vortex and fill to volume with solvent (50% MeOH). • 3. Filter through 0.2 μm PVDF (polyvinylidene difluoride) or PTFE (polytetrafluoroethylene) filter into a HPLC amber vial, discard the first 0.5 ml.
A calibration curve for DMP433 is created, using calibration standard solutions L1-L6, and expressing the relationship between responses (peak areas) and standard concentrations (ng/ml). For L1, the average of 6 injections is used. Linear regression is weighed with 1/amount. […]
For `CN(C)C(=O)c1cc2cnc(Nc3ccc(N4CCNCC4)cn3)nc2n1C1CCCC1` [Batch B0705466], the “DMP433 [ppm] LOQ (0.0625 ppm)” value is recorded as “LOQ” and the “DMP433 [ppm], result in brackets (extrapolation, estimate of actual value below LOQ)” value is listed as 0.043 ppm. On to `CN(C)C(=O)c1cc2cnc(Nc3ccc(N4CCNCC4)cn3)nc2n1C1CCCC1` [Batch B705465], for which the “DMP433 [ppm] LOQ (0.0625 ppm)” value is “LOQ” and the “DMP433 [ppm], result in brackets (extrapolation, estimate of actual value below LOQ)” value is on record as 0.037 ppm.

Still in this data set, the particulars now being: washing of isolated ribociclib succinate, laboratory scale (conditions per experiment).
As for `CN(C)C(=O)c1cc2cnc(Nc3ccc(N4CCNCC4)cn3)nc2n1C1CCCC1.O=C(O)CCC(=O)O` [LEE011-haenepa1-012], the “DMP433 in LEE011-B12” value came out at 746 ppb.
